Series [1] can be described thus: Antifibrotic activity in rat 1097 cells assessed as inhibition of TGF-beta-stimulated [3H]proline incorporation in to collagen at 30 uM. Type of series: functional.
The nature of series [2]: (§1) Antifibrotic activity in rat 1097 cells assessed as inhibition of TGF-beta-stimulated [3H]proline incorporation in to collagen at 100 uM. Format: functional.
For series [3], the system named is 1097. Description: Antifibrotic activity in rat 1097 cells assessed as necrotic cells at 30 uM. Format: functional, cell-based.
Series [4] deals with 1097. Put plainly: Antifibrotic activity in rat 1097 cells assessed as necrotic cells at 100 uM. Type of series: functional, cell-based.
Series [5] is filed under the species Rattus norvegicus. Description: Antifibrotic activity in rat 1097 cells assessed as damaged cells at 100 uM. Format: functional, cell-based.
The nature of series [6]: Antifibrotic activity in rat 1097 cells assessed as inhibition of TGF-beta-stimulated [3H]proline incorporation in to collagen at 10 uM. Format: functional.
The species named for series [7] is Rattus norvegicus. The description is as §1. Type of series: functional.
The test system of series [8] is Rattus norvegicus. Description: Reduction in albuminuria in STZ-induced Ren2 rat at 200 mg/kg/day after 24 hrs by radioimmunoassay. Format: functional, organism-based.
Series [9] has as its system Rattus norvegicus. Put plainly: Reduction in albuminuria in STZ-induced Ren2 rat at 400 mg/kg/day after 24 hrs by radioimmunoassay. Format: functional, organism-based.
A short description of series [10]: Toxicity against rat 1097 cells at 30 uM. Format: cell-based.
The nature of series [11]: Toxicity against rat 1097 cells at 100 uM. Format: cell-based.

Results on 31 compounds are retold here after ChEMBL document CHEMBL1153705, “Evaluation and optimization of antifibrotic activity of cinnamoyl anthranilates” (Bioorg Med Chem Lett, 2009).

Active and inactive are the calls of the source. No cut-off for these calls is given here.

Take `C#CCCCCOc1cc(/C=C/C(=O)Nc2ccccc2C(=O)O)ccc1OC`: the inhibition (usually the change of the read-out against control, counted positive when it falls) at 30 µM in [1] was 95%. In series [2], the inhibition at 100 µM is 100%.

Regarding `C#CCOc1cc(/C=C/C(=O)Nc2ccccc2C(=O)O)ccc1OC`, in [1], the inhibition at 30 µM was 60%. Moreover, the inhibition at 100 µM in series [2] stood at 90%. Taken in the same sequence, the figures for `COc1ccc(/C=C/C(=O)Nc2ccccc2C(=O)O)cc1OC` [TRANILAST] were 40% and 70%. For the compound `CCCCC#CCCOc1ccc(/C=C/C(=O)Nc2ccccc2C(=O)O)cc1OC`, in series [3], the outcome was Active.

As for `COc1cc(/C=C/C(=O)Nc2ccccc2C(=O)O)ccc1OC1CCCCC1`, the outcome in series [4] and in [3] was Active. As for `COc1cc(/C=C/C(=O)Nc2ccccc2C(=O)O)ccc1OC1CCC1`, the result in series [5] was Active. The inhibition at 10 µM in series [6] turned out to be 60%. With `COc1ccc(/C=C/C(=O)Nc2ccccc2C(N)=O)cc1OC`, the inhibition at 100 µM in series [2] came out at 35%. Regarding `COc1ccc(/C=C/C(=O)Nc2ccccc2C(=O)O)cc1`, the inhibition entry in [7] is “inactive”.

With `C#CCCOc1cc(/C=C/C(=O)Nc2ccccc2C(=O)O)ccc1OC`, the inhibition at 30 µM in [1] amounted to 65%. Further, in series [5], the result was Active. Consider `CCC#CCCOc1ccc(/C=C/C(=O)Nc2ccccc2C(=O)O)cc1OC`, for which the inhibition at 30 µM in [1] amounted to 100%. Further, the outcome in series [5] was Active.

`C#CCCOc1ccc(/C=C/C(=O)Nc2ccccc2C(=O)O)cc1OC`: the inhibition at 30 µM in series [1] was 70%. Moreover, in series [2], the inhibition at 100 µM is 100%.

Take `C#CCOc1ccc(/C=C/C(=O)Nc2ccccc2C(=O)O)cc1OC` [ASENGEPRAST]: the outcome in [8] and in [9] was Active. In addition, the inhibition at 30 µM in [1] was determined as 55%. In addition, in series [2], the inhibition at 100 µM stood at 80%.

Consider `CCC#CCCOc1cc(/C=C/C(=O)Nc2ccccc2C(=O)O)ccc1OC`, for which, in series [1], the inhibition at 30 µM was found to be 100%. The inhibition at 100 µM in series [2] is 100%. `COc1cccc(/C=C/C(=O)Nc2ccccc2C(=O)O)c1`: the inhibition at 100 µM in series [2] was 40%. For the compound `CC#CCOc1ccc(/C=C/C(=O)Nc2ccccc2C(=O)O)cc1OC`, in series [1], the inhibition at 30 µM was 65%. Further, the inhibition at 100 µM in series [2] amounted to 90%. For `COc1cc(/C=C/C(=O)Nc2ccccc2C(=O)O)ccc1OC1CCCCCCC1`, the result in series [4] and in [3] was Active. Regarding `CCC#CCOc1cc(/C=C/C(=O)Nc2ccccc2C(=O)O)ccc1OC`, in series [1], the inhibition at 30 µM worked out at 90%. Moreover, the results for the Activity entry in [10] and in [11] were “Non-toxic” and “Toxic”, respectively. Besides, the inhibition at 100 µM in series [2] came out at 100%. On to `CC#CCOc1cc(/C=C/C(=O)Nc2ccccc2C(=O)O)ccc1OC`, for which the inhibition at 30 µM in series [1] turned out to be 75%. In addition, the inhibition at 100 µM in [2] is 80%. Take `COc1cc(/C=C/C(=O)Nc2ccccc2C(=O)O)ccc1O`: the inhibition at 100 µM in series [2] is 50%.

As to `C#CCCCOc1ccc(/C=C/C(=O)Nc2ccccc2C(=O)O)cc1OC`, the inhibition at 30 µM in series [1] is 75%. Further, the inhibition at 100 µM in series [2] is 100%.

In the case of `C#CCCCOc1cc(/C=C/C(=O)Nc2ccccc2C(=O)O)ccc1OC`, the inhibition at 30 µM in series [1] came out at 80%. For the same compound, in series [5], the outcome was Active. In the case of `COc1ccc(/C=C/C(=O)Nc2ccccc2)cc1OC`, the inhibition at 100 µM in series [2] is 50%.

Consider `COc1cc(/C=C/C(=O)Nc2ccccc2C(=O)O)ccc1OC1CCCCCC1`, for which the outcome in series [4] and in series [3] was Active. With `CCCCC#CCCOc1cc(/C=C/C(=O)Nc2ccccc2C(=O)O)ccc1OC`, the outcome in series [4] and in series [3] was Active.

Turning to `O=C(/C=C/c1ccc(O)c(O)c1)Nc1ccccc1C(=O)O`, the inhibition at 100 µM in series [2] worked out at 90%. As to `C#CCCCCOc1ccc(/C=C/C(=O)Nc2ccccc2C(=O)O)cc1OC`, in [1], the inhibition at 30 µM is 80%. Also, in series [5], the result was Active. For `CCC#CCOc1ccc(/C=C/C(=O)Nc2ccccc2C(=O)O)cc1OC`, in [1], the inhibition at 30 µM worked out at 100%. Also, the Activity entry in [10] is “Non-toxic”; in series [11], “Toxic”. For the same compound, in [2], the inhibition at 100 µM was 100%. On to `COc1ccc(CCC(=O)Nc2ccccc2C(=O)O)cc1OC`, for which, in series [7], the inhibition result was “inactive”. Same read-out and setting: then `O=C(/C=C/c1ccccc1)Nc1ccccc1C(=O)O`, with “inactive”.

As for `COc1ccc(/C=C/C(=O)Nc2ccccc2C(=O)O)cc1O`, in series [2], the inhibition at 100 µM came out at 50%.

Regarding `COc1cc(/C=C/C(=O)Nc2ccccc2C(=O)O)ccc1OC1CCCC1`, in series [1], the inhibition at 30 µM was found to be 100%. In series [5], the outcome was Active. The values for the Activity entry in series [10] and in series [11] were “Non-toxic” and “Toxic”, respectively.
